Results taken from US9073909B2, “[1,3]oxazines” (HOFFMANN-LA ROCHE INC., priority 2011, dated 2015).
pIC50: −log10 of the molar value.

Tests used:
BACE1 [1] = details: baboon, i.v. bolus, PET 0 to 120 minutes
Experimental: The PET experiments were carried out in male baboons (papio anubis). Animals were fasted for 12 hours prior to the PET study. Baboons were initially sedated intramuscularly with Ketamine hydrochloride with restraint dosages of 5-7 mg/kg to achieve a superficial level of anesthesia and then maintained on continuous Propofol intravenous infusion @ 0.3-0.4 mg/kg/h ([…] ® Injectable Emulsion). Circulatory volume was maintained by infusion of isotonic saline. A femoral arterial catheter was inserted for blood sampling. Physiological vital signs including heart rate, ECG, blood pressure and oxygen saturation were continuously monitored throughout the study. The animal was positioned in an ECAT HRRT® brain PET scanner (High Resolution Research Tomograph, CPS Innovations, Inc., Knoxville, Tenn.). The head of the animal was fitted with a thermoplastic mask that was attached to a head holder for reproducible fixation. A 6 min transmission scan with a 1 mCi Cs-137 point source was initially done for attenuation correction. […] The radioactivity of a VOI at time T was calculated as the weighted mean and expressed in mCi/ml. […]
SUV (%)=radioactivity (nCi/ml)/106/(dose (mCi)/body weight (kg)×103)×100, where numbers were used to make the unit for radioactivity equivalent between voxel radioactivity and radioactivity dose (106) and between body weight and voxel volume (103).

BACE1 [2] = molecular target: T1, BACE1 (Homo sapiens, UniProt P56817); assay: Cellular Aβ-lowering assay (BACE1 cell act. Aβ40); type: cell-based; details: HEK293 cells stably expressing human APP695; Aβ40 in supernatant
T1 construct: from tissue; host or cells: human brain tissue slices
Experimental: a) Human HEK293 cells which are stably transfected with a vector expressing a cDNA of the human APP wt gene (APP695) were used to assess the potency of the compounds in a cellular assay. The cells were seeded in 96-well microtiter plates in cell culture medium (Iscove, plus 10% (v/v) fetal bovine serum, glutamine, penicillin/streptomycin) to about 80% confluence and the compounds were added at a 10× concentration in 1/10 volume of medium without FCS containing 8% DMSO (final concentration of DMSO was kept at 0.8% v/v). After 18-20 hrs incubation at 37° C. and 5% CO2 in a humidified incubator the culture supernatant was harvested for the determination of Aβ40 concentrations. […] After stopping the reaction with one volume 1 N H2SO4 the reaction was measured in an ELISA reader at 450 nm wavelength. The concentrations of Aβ in the culture supernatants were calculated from a standard curve obtained with known amounts of pure Aβ peptide. […]
In a Perkin-Elmer White Optiplate-384 (Cat#6007290), 2 μl culture supernatants were combined with 2 μl of a 10× AlphaLISA Anti-hAβAcceptor beads+Biotinylated Antibody Anti-Aβ 1-40 Mix (50 μg/mL/5 nM). […] Light Emission at 615 nm was then recorded using EnVision-Alpha Reader. Levels of Aβ40 in the culture supernatants were calculated as percentage of maximum signal (cells treated with 1% DMSO without inhibitor). […]

BACE1 [3] = molecular target: T2, BACE1 (Rattus norvegicus, UniProt P56819); assay: In vitro autoradiography in rat brain sections; type: binding
T2 construct: from tissue; host or cells: rat brain (sagittal sections in vitro; brain of living rats for the ex vivo study)
T2 sequence (P56819 46-501): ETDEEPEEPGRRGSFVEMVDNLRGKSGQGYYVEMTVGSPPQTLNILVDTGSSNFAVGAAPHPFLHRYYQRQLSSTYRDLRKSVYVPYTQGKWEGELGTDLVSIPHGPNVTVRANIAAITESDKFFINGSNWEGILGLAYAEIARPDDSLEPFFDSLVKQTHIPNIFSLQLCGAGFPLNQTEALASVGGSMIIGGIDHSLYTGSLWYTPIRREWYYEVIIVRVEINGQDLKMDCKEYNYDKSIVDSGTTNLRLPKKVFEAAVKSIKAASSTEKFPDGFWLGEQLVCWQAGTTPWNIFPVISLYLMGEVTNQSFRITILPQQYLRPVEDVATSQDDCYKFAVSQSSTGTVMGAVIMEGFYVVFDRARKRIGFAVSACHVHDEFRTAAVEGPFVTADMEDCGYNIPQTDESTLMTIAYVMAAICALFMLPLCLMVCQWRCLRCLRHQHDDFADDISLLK
From the text: The distribution of [^3H]-5-but-2-ynyloxy-pyrazine-2-carboxylic acid [3-((R)-2-amino-5,5-difluoro-4-methyl-5,6-dihydro-4H-[1,3]oxazin-4-yl)-4-fluoro-phenyl]-amide binding sites as well as the binding specificity for BACE1 was investigated by in vitro autoradiography using male Sprague-Dawley rats. Animals were sacrificed, their brains were rapidly removed and frozen in dry ice powder. Ten μm-thick sagittal sections were cut in a Cryostat microtome and thaw-mounted on adhesion glass slides. Brain sections were first incubated for 10 min in Ringer buffer (NaCl 120 mM, KCl 5 mM, CaCl2 2 mM, MgCl2 1 mM, Tris-HCl 50 mM pH 7.4) at RT and then for 60 min in Ringer buffer containing either 1 nM or 10 nM [^3H]-5-but-2-ynyloxy-pyrazine-2-carboxylic acid [3-((R)-2-amino-5,5-difluoro-4-methyl-5,6-dihydro-4H-[1,3]oxazin-4-yl)-4-fluoro-phenyl]-amide. For the evaluation of non-specific-binding (NSB) of the radiotracer an additional series of sections was incubated with Ringer buffer containing the radiotracer and a reference BACE1 inhibitor ((S)-3-(3,6-dihydro-2H-pyran-4-yl)-7-(2-fluoropyridin-3-yl)-5′H-spiro[chromeno[2,3-c]pyridine-5,5′-oxazol]-2′-amine, CAS Nr 1215869-02-5; example 294 in WO2010030954) at 10 μM. At the end of the incubation, sections were rinsed 3×5 min in ice-cold Ringer buffer and then rapidly dipped once in distilled water at 4° C. Slide-mounted brain sections were dried under a flow of cold air for 3 h and exposed together with [^3H]-microscale to a Fuji Imaging plate for 5 days. The imaging plate was then scanned in a high resolution Fuji BAS reader. The total amount of radiotracer bound to the brain areas of interest (TB) was measured using the MCID image analysis program and expressed as fmol of bound radiotracer/mg of protein. The amount of [^3H]-5-but-2-ynyloxy-pyrazine-2-carboxylic acid [3-((R)-2-amino-5,5-difluoro-4-methyl-5,6-dihydro-4H-[1,3]oxazin-4-yl)-4-fluoro-phenyl]-amide specifically bound to BACE1 (SB) was calculated according to the formula SB=TB−NSB. […]

BACE1 [4] = molecular target: T2, BACE1; assay: Ex vivo autoradiography in rats after i.v. tracer injection
Experimental: The in vivo characteristics of [^3H]-5-but-2-ynyloxy-pyrazine-2-carboxylic acid [3-((R)-2-amino-5,5-difluoro-4-methyl-5,6-dihydro-4H-[1,3]oxazin-4-yl)-4-fluoro-phenyl]-amide for imaging BACE1 were analyzed by an ex vivo autoradiographical approach using young male Sprague-Dawley rats. Animals were intravenously injected with 1 mCi/kg [^3H]-5-but-2-ynyloxy-pyrazine-2-carboxylic acid [3-((R)-2-amino-5,5-difluoro-4-methyl-5,6-dihydro-4H-[1,3]oxazin-4-yl)-4-fluoro-phenyl]-amide corresponding to 37.7 nmol/kg and sacrificed at various time points post injection. To test the specificity of tracer binding in vivo, rats were pre-administered with 10 mg/kg of a reference BACE1 inhibitor ((S)-3-(3,6-dihydro-2H-pyran-4-yl)-7-(2-fluoropyridin-3-yl)-5′H-spiro[chromeno[2,3-c]pyridine-5,5′-oxazol]-2′-amine, CAS Nr 1215869-02-5; example 294 in WO2010030954) (p.o.) 3 h prior to tracer injection. Animals were sacrificed at various time points post injection (5, 15, 30, 60, 120 min p.i.), their brains were rapidly removed and frozen in dry ice powder. Ten μm-thick sagittal sections were cut in a Cryostat microtome and thaw-mounted on adhesion glass slides. Slide-mounted brain sections were dried under a flow of cold air for 3 h and exposed together with [^3H]-microscale to a Fuji Imaging plate for 5 days. The imaging plate was then scanned in a high resolution Fuji BAS reader. The total amount of radiotracer bound to the brain areas of interest (TB) was measured using the MCID image analysis program and expressed as fmol of bound radiotracer/mg of protein. The amount of [^3H]-5-but-2-ynyloxy-pyrazine-2-carboxylic acid [3-((R)-2-amino-5,5-difluoro-4-methyl-5,6-dihydro-4H-[1,3]oxazin-4-yl)-4-fluoro-phenyl]-amide specifically bound to BACE1 (SB) was calculated according to the formula SB=TB−NSB.

T1 sequence (P56817 46-501): as the sequence (P56819 46-501) above, with S82G, I162V, I165L, T180S, A182V, V340I, A393L, H443Q counted along it

How did the “brain uptake of radiotracer” value (BACE1 [1]) turn out when C[C@]1(c2cc(NC(=O)c3cnc(OCC#C[11CH3])cn3)ccc2F)N=C(N)OCC1(F)F [Example 3, [^11C]-5-But-2-ynyloxy-pyrazine-2-carboxylic acid [3-((R)-2-amino-5,5-difluoro-4-methyl-5,6-dihydro-4H-[1,3]oxazin-4-yl)-4-fluoro-phenyl]-amide] was run?
Its value is “rapidly taken up in multiple brain areas”.

How did the pIC50 (BACE1 [2]) turn out when CC#CCOc1cnc(C(=O)Nc2ccc(F)c([C@@]3(C)N=C(N)OCC3(F)F)c2)cn1 [Example 1, 5-But-2-ynyloxy-pyrazine-2-carboxylic acid [3-((R)-2-amino-5,5-difluoro-4-methyl-5,6-dihydro-4H-[1,3]oxazin-4-yl)-4-fluoro-phenyl]-amide] was run?
The pIC50 was 8.96.

For “[^3H]-5-But-2-ynyloxy-pyrazine-2-carboxylic acid [3-((R)-2-amino-5,5-difluoro-4-methyl-5,6-dihydro-4H-[1,3]oxazin-4-yl)-4-fluoro-phenyl]-amide [Example 2]”, which “reduction of tracer binding” value (BACE1 [3]; 1 nM example 2 co-incubated with 10 μM specific BACE1 inhibitor A, rat brain sections) is on record?
Its value is “more than 80%”.

What about the “brain regions with highest densities of binding sites” value (BACE1 [3]; male Sprague-Dawley rat sagittal brain sections) of the same compound?
Its value is “dentate gyms and the CA3 region of the hippocampus, the cerebellum, pallidum and substantia nigra”.

What about the “distribution of binding sites in the rat brain” value (BACE1 [3]; male Sprague-Dawley rat sagittal brain sections, 1 nM or 10 nM tracer) of the same compound?
Its value is “widespread distribution”.

What about the “in vivo binding after pre-treatment with BACE1 ligand A (specificity)” value (BACE1 [4]; 10 mg/kg reference BACE1 inhibitor p.o. 3 h prior to tracer injection) of the same compound?
The value was “clearly reduced”.

And the “in vivo distribution pattern of binding (regions of highest accumulation)” value (BACE1 [4]; 1 mCi/kg i.v., ex vivo autoradiography)?
The value was “highest accumulation in the dentate gyms and the CA3 region of the hippocampus, the cerebellum, pallidum and substantia nigra”.

And the “wash-out kinetics of tracer binding” value (BACE1 [4]; 5, 15, 30, 60, 120 min post injection)?
The value was “favorable wash-out kinetics”.
